Measured values from article PMC8356643 (2019).

Experiments:
[1] = system: VEGF (DNA, G4) GGGAGGGTTGGGGTGGG; assay: UV-vis titration; conditions: 5 mM K+, 95 mM Li+; 10 mM lithium cacodylate 7.2, 95 mM LiCl, 5 mM KCl; parallel dimer
[2] = system: cMyc (DNA, G4) TGAGGGTGGGTAGGGTGGGTAA; assay: fluorescence titration; conditions: 100 mM K+; 6 mM Na2HPO4, 2 mM NaH2PO4 7.1, 1 mM Na2EDTA, 100 mM KCl
[3] = system: G4TERT (DNA, G4) AGGGGAGGGGCTGGGAGGGC; assay: UV-vis titration; conditions: 5 mM K+, 95 mM Li+; 10 mM lithium cacodylate 7.2, 95 mM LiCl, 5 mM KCl; parallel dimer
[4] = system: THM (DNA, G4) GGGTTGGGTTGGGTTGGG; assay: X-ray crystallography; conditions: K+; 2.4 Å; end-stacking to the 3' G-tetrad
[5] = system: cMyc (DNA, G4) TGAGGGTGGGTAGGGTGGGTAA; assay: UV-vis titration; conditions: 100 mM K+; 6 mM Na2HPO4, 2 mM NaH2PO4 7.1, 1 mM Na2EDTA, 100 mM KCl
[6] = system: THM (DNA, G4) GGGTTGGGTTGGGTTGGG; assay: UV-vis titration; conditions: 5 mM K+, 95 mM Li+; 10 mM lithium cacodylate 7.2, 95 mM LiCl, 5 mM KCl
[7] = system: THM (DNA, G4) GGGTTGGGTTGGGTTGGG; assay: fluorescence titration; conditions: 5 mM K+, 95 mM Li+; 10 mM lithium cacodylate 7.2, 95 mM LiCl, 5 mM KCl
[8] = system: THM (DNA, G4) GGGTTGGGTTGGGTTGGG; assay: ITC; conditions: 5 mM K+, 95 mM Li+; 10 mM lithium cacodylate 7.2, 95 mM LiCl, 5 mM KCl
[9] = system: THM (DNA, G4) GGGTTGGGTTGGGTTGGG; assay: CD melting; conditions: 5 mM K+; 2 eq NMM

Ka [1]: 10. ± 2 × 10^6 M^-1 | Ka [2]: 7.4 ± 2 × 10^6 M^-1 | Ka [3]: 1.7 ± 0.7 × 10^6 M^-1 | binding [4]: yes | Ka [5]: 19 ± 6 × 10^6 M^-1 | Ka [6]: 30 ± 20 × 10^6 M^-1 | Ka [7]: 50 ± 20 × 10^6 M^-1 | Ka [8]: 70 ± 20 × 10^6 M^-1 | ΔT [9]: 23 ± 2 °C
SMILES: CCc1c(C)c2cc3nc(cc4nc(cc5c(CC)c(C)c(cc1[nH]2)n5C)C(C)=C4CCC(=O)O)C(CCC(=O)O)=C3C
